# Source: PMC11487561 (ACS Chemical Neuroscience, 2024)
# Read-outs that look alike come from different tables or passages of the source.
# Columns and labels:
# [1] = tested on: amphetamine-induced hyperlocomotion in rats; assay: Rat amphetamine-induced hyperlocomotion (AHL); assay type: in vivo; conditions: 10 mg/kg p.o. + amphetamine 0.75 mg/kg s.c.
# Procedure: Rat Amphetamine-Induced Hyperlocomotion (AHL) Protocol
# Male Harlan Sprague Dawley rats with a mean body weight of 240 g (range 221-264 g) were tested in SmartFrame Open Field locomotor activity test chambers to automatically record locomotor activity. All rats were habituated in locomotor activity enclosures for 30 min, followed by pretreatment by oral gavage for an additional 30 min with either vehicle or a dose of VU6016235 or the comparator M 4 PAM VU0467154. Next, rats were injected subcutaneously with vehicle or a dose of 0.75 mg/kg amphetamine and then monitored for an additional 60 min. Changes in locomotor activity were recorded for a total of 120 min. Locomotor data were expressed as the number of photobeam breaks/5 min intervals across the 120-min test session or as the total ambulation, calculated as sum of photobeam beam breaks from the time of amphetamine administration (60 min) until the end of the study (120 min). Time course data were analyzed by two-way ANOVA with main effects of treatment and time; changes in total ambulation were analyzed by one-way ANOVA followed by Dunnett’s post hoc test (GraphPad Prism 7 [GraphPad Software, San Diego, CA]). For all tests, α ≤ 0.05 was considered to represent statistical significance.
# Finally, percent reversal data were calculated in Microsoft Excel using the following formula: Percent Reversal = 100 - {[(total ambulation in individual animal from t = 60 to t = 120) / (mean total ambulation […]
# from t=60 to t=120 in the VAMP group)] * 100}. Mean percent reversal ± S.E.M. was calculated for each dose group using GraphPad Prism 7.
# At the end of this behavioral study, each rat was euthanized, then decapitated, and the plasma and brain tissues were collected for the evaluation of exposure levels of VU6016235-05 or VU0467154-9A by pharmacokinetic analysis. […]
# human M4 (hM4) = molecular target: T1, human M4 (hM4) (Homo sapiens, UniProt P08173); assay: Calcium mobilization assay, hM4/Gqi5-CHO cells, EC20 acetylcholine (PAM); assay type: cell-based; conditions: for fold increase in hM4 potency (EC50) vs comparator analogue: 14h vs 14c, 22g vs 14j, 22j vs 14k, 22k vs 14g, 22f vs 14e; for Emax / EC50 / hM4 pEC50: calcium mobilization, hM4/Gqi5-CHO cells, EC20 acetylcholine; for Emax: read-out: hM4 %ACh Max
# T1 construct: expressed in transfected cells
# T1 sequence (P08173 1-479): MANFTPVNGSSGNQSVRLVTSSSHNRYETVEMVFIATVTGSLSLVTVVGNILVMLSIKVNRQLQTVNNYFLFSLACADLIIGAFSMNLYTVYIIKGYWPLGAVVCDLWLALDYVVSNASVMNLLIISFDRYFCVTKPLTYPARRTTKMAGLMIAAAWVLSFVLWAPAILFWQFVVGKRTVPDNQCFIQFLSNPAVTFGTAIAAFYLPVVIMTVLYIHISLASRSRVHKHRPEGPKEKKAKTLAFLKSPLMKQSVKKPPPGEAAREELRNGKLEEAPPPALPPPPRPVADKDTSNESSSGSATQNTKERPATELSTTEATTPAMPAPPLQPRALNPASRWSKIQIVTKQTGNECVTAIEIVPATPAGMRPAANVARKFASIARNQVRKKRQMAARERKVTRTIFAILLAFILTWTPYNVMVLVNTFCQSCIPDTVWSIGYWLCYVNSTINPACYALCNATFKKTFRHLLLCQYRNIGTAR
# rat M4 (rM4) = rat M4 (rM4) (Rattus norvegicus, UniProt P08485); assay: Calcium mobilization assay, rat M4; assay type: cell-based
# [2] = Intrinsic clearance in rat liver microsomes; assay type: in vitro ADME; conditions: for CLint scaled at 1 µM: pH 7.4, rat liver microsomes
# Procedure: (§1) Intrinsic Clearance in Rat and Human Liver Microsomes
# (§2) The in vitro intrinsic clearance (CL int) was investigated in commercially obtained hepatic microsomes from rat and human donors using the substrate depletion (i.e., loss-of-parent vs. time, or t 1/2 method) approach with analyte detection via liquid chromatography-tandem mass spectrometry (LC-MS/MS). For each species, mean %parent remaining values at each time point were calculated from replicates raw data (analyte:IS peak area ratios) and used to determine in vitro t 1/2 and CLint.
# (§3) Experiments were carried out using a robot-assisted (TECAN model Evo 200). Compound was incubated (1 µM final concentration) in buffer (100 mM potassium phosphate pH 7.4 with 3 mM MgCl2) containing hepatic microsomes (0.5 mg/mL final concentration) from multiple species, discretely, at 37 °C under constant orbital shaking. After 5 minutes (pre-incubation), reactions were initiated by addition of nicotinamide adenine dinucleotide phosphate (NADPH, 1 mM final concentration). At selected time intervals (0, 3, 7, 15, 25, and 45 minutes) post-addition of NADPH, aliquots (50 µL) were taken and placed into a 96-shallow-well plate containing ice cold acetonitrile (150 µL) with carbamazepine (IS, 50 nM). The plates were then centrifuged (3000 rcf at 4 °C) for 10 minutes. The supernatants were transferred to a new 96-shallow-well daughter plate and diluted (1:1 v/v) with water (Milli-Q filtered). The plates were then sealed in preparation for LC-MS/MS analysis (see below).
# (§4) Raw LC-MS/MS peak area data generated from the assay samples were used to construct natural log-transformed %parent remaining vs. time plots (using t = 0 minute post-NADPH addition sample data as starting point set to 100%). In vitro compound half-life (t 1/2) values were obtained using the following […]
# (§5) k is the slope from linear regression analysis of the natural log-transformed data (using means from Where all replicates at each time point). Resulting t 1/2 values were then used to calculate hepatic CLint values according to the following equation and with the use of species-specific scale-up factors for liver weight (grams) per total body weight (kg): […]
# (§6) CLint = in vitro t1/2 x 0.5 mg microsomes x 1 gram liver x kg body wt aScale-up factors used are 45 (rat) and 20 (human).2
# (§7) Predicted hepatic clearance (CLhep) was calculated using the following equation: […]
# (§8) Qh represents hepatic blood flow (mL/min/kg): 21 for human, 70 for rat, and 90 for mouse.
# (§9) Prepared samples were injected (10 µL each) onto an AB Sciex Triple Quad 4500 mass spectrometer system with an Agilent 1260 Infinity II pump and autosampler. Mass spectrometer conditions are described in Table S1. Quantitation of compounds was performed via AB Sciex Multiquant software using the raw analyte:IS peak area ratios. The typical detection range was 0.5 ng/mL to ≥ 5,000 ng/mL utilizing a quadratic equation regression with 1/x2 weighting. […]
# (§10) Table S1. LC-MS/MS Conditions*
# (§11) Mobile phase A 0.5% Formic Acid in Water
# (§12) Mobile phase B 0.5% Formic Acid in Acetonitrile
# (§13) Gradient Time % Mobile Phase B
# [3] = Intrinsic clearance in human liver microsomes; assay type: in vitro ADME; conditions: for CLint scaled at 1 µM: pH 7.4, human liver microsomes
# Procedure: as §1, §2, §3, §4, §5, §6, §7, §8, §9, §10, §11, §12, §13
# [4] = Binding in plasma from rat (equilibrium dialysis); assay type: in vitro ADME; conditions: read-out: rat fu,plasma
# Procedure: (§14) Binding in plasma from rat and human.
# (§15) Determination of compounds’ fraction unbound (f u) in plasma from rat and human was conducted in vitro via equilibrium dialysis using HTDialysis membrane plates. Dialysis membranes (four paired strips per HTD assay) were hydrated as described by the manufacturer and inserted into the HTD plate, which was assembled and prepared for sample addition by the dispensing of blank buffer (DPBS, 100 µL/well) into the ‘top half’ of each membrane-split well. Each compound was diluted into plasma from each species (5 µM final concentration), which was aliquoted in triplicate to the ‘bottom half’ of the prepared HTD plate wells. The HTD plate was sealed and incubated for 6 hours at 37 °C. Following incubation, each well (both top and bottom halves) were transferred (20 µL) to the corresponding wells of a 96-shallow-well (V-bottom) plate. The daughter plates were then matrix-matched (buffer side wells received equal volume of plasma, and plasma side wells received equal volume of buffer), and extraction solution (120 µL; acetonitrile containing 50 nM carbamazepine as IS) was added to all wells of both daughter plates to precipitate protein and extract test article. The plates were then sealed and centrifuged (3500 rcf) for 10 minutes at ambient temperature. Supernatant (60 µL) from each well of the daughter plates was then transferred to the corresponding wells of new daughter plates (96-shallow-well, V bottom) containing water (Milli-Q, 60 µL/well), and the plates were sealed in preparation for LC-MS/MS analysis (see below). fu was calculated as (analyte to IS MS peak area ratio from Trans-buffer side) / (analyte to IS MS peak area ratio from Cis-plasma side). Mean values for each species were calculated from 3 replicates.
# [5] = Binding in plasma from human (equilibrium dialysis); assay type: in vitro ADME; conditions: for fraction unbound at 6 h, 5 µM: human, plasma, read-out: human fu,plasma
# Procedure: as §14, §15
# [6] = Binding in brain homogenate from rat (equilibrium dialysis); assay type: in vitro ADME; conditions: for rat fbrain: fraction unbound, equilibrium dialysis, rat brain homogenates; for fraction unbound at 6 h, 1 µM: rat, brain homogenate, in %, read-out: fu,brain (rat brain homogenate)
# Procedure: Binding in brain homogenate from rat.
# Determination of fraction unbound (f u) in brain homogenate from rat was conducted using the same methodology and procedure than described for plasma protein binding assay with the following modifications: 1) a final compound concentration of 1 μM was used, 2) naïve rat brains were homogenized in DPBS (1:3 composition of brain: DPBS, w/w) using a Mini-Bead Beater™ machine in order to obtain […]
# The diluted fraction unbound (f u2) in brain was calculated as (analyte to IS MS peak area ratio from Trans-buffer side) / (analyte to IS MS peak area ratio from Cis-brain homogenate side). Undiluted fraction unbound for the brain was calculated using the following equation: […]
# Mean values for each species were calculated from 3 replicates. […]
# [7] = Rat plasma-to-brain level (PBL) cassette, brain distribution; assay type: in vivo; conditions: SD rat, 0.2 mg/kg IV; for Kp, brain:plasma / Kp,uu, brain:plasma: 0.25 h; for Kp, brain:plasma / Kp at 0.25 h: total brain to total plasma ratio; for Kp,uu, brain:plasma / Kp uu at 0.25 h: unbound brain to unbound plasma ratio; for Kp at 0.25 h / Kp uu at 0.25 h: male, Sprague-Dawley, rat, brain / plasma, iv
# [8] = design: method as in PMID 31787491, PMID 34710625; conditions: previously reported tricycles, Figure 2; cited from earlier work
# [9] = design: method as in PMID 31787491, PMID 34710625; conditions: previously reported tricycles, Figure 2; cited from earlier work; remark: listed apart in the source
# [10] = read-out: hM4 pEC50 (converted)
# [11] = predicted hepatic clearance from microsomal CLint
# [12] = fraction unbound, equilibrium dialysis
# Sequence of rat M4 (rM4) (P08485 whole entry): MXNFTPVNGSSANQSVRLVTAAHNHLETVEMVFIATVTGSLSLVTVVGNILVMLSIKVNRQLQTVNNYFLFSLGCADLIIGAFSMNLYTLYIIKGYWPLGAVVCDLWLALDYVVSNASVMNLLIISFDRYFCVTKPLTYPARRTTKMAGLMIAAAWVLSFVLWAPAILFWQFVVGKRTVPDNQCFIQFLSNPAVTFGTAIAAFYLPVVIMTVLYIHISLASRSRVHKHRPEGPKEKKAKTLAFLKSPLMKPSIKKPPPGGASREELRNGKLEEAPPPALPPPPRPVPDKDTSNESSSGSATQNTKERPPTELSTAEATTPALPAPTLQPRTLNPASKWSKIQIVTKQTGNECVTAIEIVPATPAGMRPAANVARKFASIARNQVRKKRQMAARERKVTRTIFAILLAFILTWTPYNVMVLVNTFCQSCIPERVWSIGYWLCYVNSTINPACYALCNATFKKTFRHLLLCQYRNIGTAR
SMILES,Emax (human M4 (hM4)) [%],EC50 (human M4 (hM4); read-out: hM4 EC50) [nM],CLint scaled at 1 µM [2] [mL/min/kg],CLint scaled at 1 µM [3] [mL/min/kg],"fraction unbound at 6 h, 5 µM [4, 12]","fraction unbound at 6 h, 5 µM [5, 12]","fraction unbound at 6 h, 5 µM ([5]; in %)",rat fbrain [6],"fraction unbound at 6 h, 1 µM [6]",Kp at 0.25 h ([7]; 0.2 mg/kg),Kp uu at 0.25 h ([7]; 0.2 mg/kg),other results
"Cc1nnc2sc(C(=O)NCc3ccc(S(=O)(=O)C(F)(F)F)cc3)c(N)c2c1C [VU0467154, reference compound]",–,–,–,–,–,–,–,–,–,–,–,mean reversal of AHL [1]: 35.4 ± 4.2%
Cc1nc(C)c2c(n1)sc1c(N3CC4(C3)CC(F)(F)C4)ncnc12 [14h],50,100,121,45,0.132,0.035,0.01 to 0.05,0.033,0.012 to 0.033,> 5,> 1,"fold increase in hM4 potency (EC50) vs comparator analogue (human M4 (hM4)): 16 fold; EC50 (human M4 (hM4); [10]): 102 nM; EC50 (rat M4 (rM4)): 380 nM; CLhep, rat [2, 11]: 44 mL/min/kg; CLhep, human [3, 11]: 14 mL/min/kg; fraction unbound at 6 h, 5 µM ([4]; in %): > 0.05; Kp, brain:plasma ([7]; 0.2 mg/kg): 5.07; Kp,uu, brain:plasma ([7]; 0.2 mg/kg): 1.27; Kp,uu, brain:plasma ([7]; listed as VU6015976, 0.2 mg/kg): 0.76"
Cc1nc(C)c2c(n1)sc1c(N3CCCC3)nccc12 [22k],77,< 190,3060,124,0.038,0.023,–,0.007,< 0.01,18.6,3.43,fold increase in hM4 potency (EC50) vs comparator analogue (human M4 (hM4)): 4 fold; hM4 pEC50 (human M4 (hM4)): 7.14
Cc1nc(C)c2c(n1)sc1c(N3CC4CC4C3)ncnc12 (stereo not shown) [14i],76,160,1050,177,0.048,0.013,0.01 to 0.05,0.012,0.01 to 0.05,> 5,> 1,"hM4 pEC50 (human M4 (hM4)): 6.81; fraction unbound at 6 h, 5 µM ([4]; in %): > 0.05; Kp, brain:plasma ([7]; 0.2 mg/kg): 7.27; Kp,uu, brain:plasma ([7]; 0.2 mg/kg): 1.82"
Cc1cc(C)c2c(n1)sc1c(N3CC4(COC4)C3)ncnc12 [VU6007215],–,–,–,–,–,–,–,–,–,–,–,"rat CLhep [8]: 63 mL/min/kg; Kp [9]: 4.47; Kp,uu [9]: 0.40"
Cc1nc(C)c2c(n1)sc1c(N3CCCCC3)nccc12 [22e],58,< 190,3440,134,0.019,0.007,< 0.01,0.004,< 0.01,7.77,1.64,"EC50 (human M4 (hM4); [10]): 74.1 nM; human fu,plasma ([5]; in %): highly bound"
COc1cc(N2CC(Nc3ncnc4c3ccc3nn(C)c(C)c34)C2)c(Cl)cn1 [VU6017649],–,–,–,–,–,–,–,–,–,–,–,"rat CLhep [8]: 44 mL/min/kg; Kp [9]: 1.55; Kp,uu [9]: 3.88"
